From patent US20250195521A1 (Revolution Medicines, Inc., priority 2020, published 2025)

Tested on: K-Ras G12C (NCI-H358 cells)
Assay: Potency assay: pERK in NCI-H358 cells
Type: cell-based, human
Conditions: Homo sapiens, NCI-H358, 4 h, read-out: pERK EC50 (H358 KRAS G12C)
Description: The purpose of this assay is to measure the ability of test compounds to inhibit K-Ras in cells. […] This procedure measures a decrease in cellular pERK in response to test compounds. The procedure described below in NCI-H358 cells is applicable to K-Ras G12C.
Note: This protocol may be executed substituting other cell lines to characterize inhibitors of other RAS variants, including, for example, AsPC-1 (K-Ras G12D), Capan-1 (K-Ras G12V), or NCI-H1355 (K-Ras G13C).
NCI-H358 cells were grown and maintained using media and procedures recommended by the ATCC. On the day prior to compound addition, cells were plated in 384-well cell culture plates (40 μl/well) and grown overnight in a 37° C., 5% CO2 incubator. Test compounds were prepared in 10, 3-fold dilutions in DMSO, with a high concentration of 10 mM. On the day of assay, 40 nL of test compound was added to each well of cell culture plate using an Echo550 liquid handler (LabCyte®). Concentrations of test compound were tested in duplicate. After compound addition, cells were incubated 4 hours at 37° C., 5% CO2. Following incubation, culture medium was removed and cells were washed once with phosphate buffered saline.
In some experiments, cellular pERK level was determined using the AlphaLISA SureFire Ultra p-ERK1/2 Assay Kit (PerkinElmer). Cells were lysed in 25 μL lysis buffer, with shaking at 600 RPM at room temperature. […] After a 2-hour incubation in the dark, 5 μL donor mix was added, plate was sealed, and incubated 2 hours at room temperature. Signal was read on an Envision plate reader (PerkinElmer) using standard AlphaLISA settings. Analysis of raw data was carried out in Excel (Microsoft) and Prism (GraphPad). Signal was plotted vs. the decadal logarithm of compound concentration, and IC50 was determined by fitting a 4-parameter sigmoidal concentration response model.
In other experiments, cellular pERK was determined by In-Cell Western. […] Fixed cells were washed 4 times for 5 minutes with TBS containing 0.1% Triton X-100 (TBST) and then blocked with 100 μL Odyssey blocking buffer (LI-COR) for 60 minutes at room temperature. Primary antibody (PERK, CST-4370, Cell Signaling Technology) was diluted 1:200 in blocking buffer, and 50 μL was added to each well and incubated overnight at 4° C. Cells were washed 4 times for 5 minutes with TBST. Secondary antibody (IR-800CW rabbit, LI-COR, diluted 1:800) and DNA stain DRAQ5 (LI-COR, diluted 1:2000) were added and incubated 1-2 hours at room temperature. Cells were washed 4 times for 5 minutes with TBST. Plates were scanned on a Li—COR Odyssey CLx Imager. Analysis of raw data was carried out in Excel (Microsoft) and Prism (GraphPad). Signal was plotted vs. the decadal logarithm of compound concentration, and IC50 was determined by fitting a 4-parameter sigmoidal concentration response model.

Row | SMILES | EC50
1 | CCn1c(-c2cccnc2[C@H](C)OC)c2c3cc(ccc31)-c1csc(n1)C[C@H](NC(=O)[C@H](C(C)C)N(C)C(=O)N1CC(S(=O)(=O)NC)C1)C(=O)N1CCC[C@H](N1)C(=O)OCC(C)(C)C2 [Compound A549] | < 5 µM

Same assay, conditions: Homo sapiens; NCI-H358 cells, 4 hours; read-out: pERK EC50 (H358 KRAS G12C)

Row | SMILES | EC50
2 | CCn1c(-c2cccnc2[C@H](C)OC)c2c3cc(ccc31)-c1csc(n1)C[C@H](NC(=O)[C@H](C(C)C)N(C)C(=O)N1CC(n3nc(C)cc3C)C1)C(=O)N1CCC[C@H](N1)C(=O)OCC(C)(C)C2 [Compound A297] | < 5 µM
3 | CCn1c(-c2cccnc2[C@H](C)OC)c2c3cc(ccc31)-c1csc(n1)C[C@H](NC(=O)[C@H](C(C)C)N(C)C(=O)N1CC(OC(F)F)C1)C(=O)N1CCC[C@H](N1)C(=O)OCC(C)(C)C2 [Compound A302] | < 5 µM
4 | CCn1c(-c2cccnc2[C@H](C)OC)c2c3cc(ccc31)-c1csc(n1)C[C@H](NC(=O)[C@H](C(C)C)N(C)C(=O)N1CCN(C(=O)CO)CC1)C(=O)N1CCC[C@H](N1)C(=O)OCC(C)(C)C2 [Compound A306] | < 5 µM
5 | CCn1c(-c2cccnc2[C@H](C)OC)c2c3cc(ccc31)-c1csc(n1)C[C@H](NC(=O)[C@H](C(C)C)N(C)C(=O)N1CCO[C@@H](C)C1)C(=O)N1CCC[C@H](N1)C(=O)OCC(C)(C)C2 [Compound A309] | < 5 µM
6 | CCN(CC)C1CN(C(=O)N(C)[C@H](C(=O)N[C@H]2Cc3nc(cs3)-c3ccc4c(c3)c(c(-c3cccnc3[C@H](C)OC)n4CC)CC(C)(C)COC(=O)[C@@H]3CCCN(N3)C2=O)C(C)C)C1 [Compound A319] | < 5 µM
7 | CCn1c(-c2cccnc2[C@H](C)OC)c2c3cc(ccc31)-c1csc(n1)C[C@H](NC(=O)[C@H](C(C)C)N(C)C(=O)N(C)CC(C)C)C(=O)N1CCC[C@H](N1)C(=O)OCC(C)(C)C2 [Compound A332] | < 5 µM
8 | CCn1c(-c2cccnc2[C@H](C)OC)c2c3cc(ccc31)-c1csc(n1)C[C@H](NC(=O)[C@H](C(C)C)N(C)C(=O)N1CC(NC)C1)C(=O)N1CCC[C@H](N1)C(=O)OCC(C)(C)C2 [Compound A337] | < 5 µM
9 | CCN(C(=O)N(C)[C@H](C(=O)N[C@H]1Cc2nc(cs2)-c2ccc3c(c2)c(c(-c2cccnc2[C@H](C)OC)n3CC)CC(C)(C)COC(=O)[C@@H]2CCCN(N2)C1=O)C(C)C)C1CC1 [Compound A352] | < 5 µM
10 | CCn1c(-c2cccnc2[C@H](C)OC)c2c3cc(ccc31)-c1csc(n1)C[C@H](NC(=O)[C@H](C(C)C)N(C)C(=O)N(C)C1CC1)C(=O)N1CCC[C@H](N1)C(=O)OCC(C)(C)C2 [Compound A353] | < 5 µM
11 | CCn1c(-c2cccnc2[C@H](C)OC)c2c3cc(ccc31)-c1csc(n1)C[C@H](NC(=O)[C@H](C(C)C)N(C)C(=O)N1CC(CO)C1)C(=O)N1CCC[C@H](N1)C(=O)OCC(C)(C)C2 [Compound A356] | < 5 µM
12 | CCn1c(-c2cccnc2[C@H](C)OC)c2c3cc(ccc31)-c1csc(n1)C[C@H](NC(=O)[C@H]1CCO1)C(=O)N1CCC[C@H](N1)C(=O)OCC(C)(C)C2 [Compound A360] | < 5 µM
13 | CCn1c(-c2cccnc2[C@H](C)OC)c2c3cc(ccc31)-c1cc(O)cc(c1)C[C@H](NC(=O)[C@H](C(C)C)N(C)C(=O)[C@H]1CC[C@@H](CN(C)C)O1)C(=O)N1CCC[C@H](N1)C(=O)OCC(C)(C)C2 [Compound A397] | < 5 µM
14 | CCn1c(-c2cccnc2[C@H](C)OC)c2c3cc(ccc31)-c1cc(O)cc(c1)C[C@H](NC(=O)[C@H](C(C)C)N(C)C(=O)[C@@H]1OC[C@@H]3CCC[C@@H]31)C(=O)N1CCC[C@H](N1)C(=O)OCC(C)(C)C2 [Compound A407] | < 5 µM
15 | CCn1c(-c2cccnc2[C@H](C)OC)c2c3cc(ccc31)-c1csc(n1)C[C@H](NC(=O)[C@H](C(C)C)N(C)C(=O)N1CCN(C(=O)C3(N(C)C)CC3)CC1)C(=O)N1CCC[C@H](N1)C(=O)OCC(C)(C)C2 [Compound A443] | < 5 µM
16 | CCn1c(-c2cccnc2[C@H](C)OC)c2c3cc(ccc31)-c1csc(n1)C[C@H](NC(=O)[C@H](C(C)C)N(C)C(=O)N1CC(N)(C#N)C1)C(=O)N1CCC[C@H](N1)C(=O)OCC(C)(C)C2 [Compound A456] | < 5 µM
17 | CCn1c(-c2cc(N3CCN(C)CC3)cnc2[C@H](C)OC)c2c3cc(ccc31)-c1csc(n1)C[C@H](NC(=O)[C@H](C(C)C)N(C)C(=O)N1CC(N(C)C)C1)C(=O)N1CCC[C@H](N1)C(=O)OCC(C)(C)C2 [Compound A477] | < 5 µM
18 | CCn1c(-c2cccnc2[C@H](C)OC)c2c3cc(ccc31)-c1csc(n1)C[C@H](NC(=O)[C@H](C(C)C)N(C)C(=O)N1CCCC13CCN(C)CC3)C(=O)N1CCC[C@H](N1)C(=O)OCC(C)(C)C2 [Compound A498] | < 5 µM

Continued, values first:

Row | EC50 | SMILES
19 | < 5 µM | CCn1c(-c2cccnc2[C@H](C)OC)c2c3cc(ccc31)-c1csc(n1)C[C@H](NC(=O)[C@H](C(C)C)N(C)C(=O)N1CC3(CN(C)CCO3)C1)C(=O)N1CCC[C@H](N1)C(=O)OCC(C)(C)C2 [Compound A499]
20 | < 5 µM | CCn1c(-c2cccnc2[C@H](C)OC)c2c3cc(ccc31)-c1csc(n1)C[C@H](NC(=O)[C@H](C(C)C)N(C)C(=O)N1CCC[C@H]1CN(C)C)C(=O)N1CCC[C@H](N1)C(=O)OCC(C)(C)C2 [Compound A519]
21 | < 5 µM | CCn1c(-c2cccnc2[C@H](C)OC)c2c3cc(ccc31)-c1csc(n1)C[C@H](NC(=O)[C@H](C(C)C)N(C)C(=O)N1CCCC13CCOCC3)C(=O)N1CCC[C@H](N1)C(=O)OCC(C)(C)C2 [Compound A520]
22 | < 5 µM | CCn1c(-c2cccnc2[C@H](C)OC)c2c3cc(ccc31)-c1csc(n1)C[C@H](NC(=O)[C@H](C(C)C)N(C)C(=O)N1CC3(CCCO3)C1)C(=O)N1CCC[C@H](N1)C(=O)OCC(C)(C)C2 [Compound A522]
23 | < 5 µM | CCn1c(-c2cc(N3CCN(C)CC3)cnc2[C@H](C)OC)c2c3cc(ccc31)-c1csc(n1)C[C@H](NC(=O)[C@H](C1CCCC1)N(C)C(=O)N(C)C)C(=O)N1CCC[C@H](N1)C(=O)OCC(C)(C)C2 [Compound A526]
24 | < 5 µM | CCn1c(-c2cccnc2[C@H](C)OC)c2c3cc(ccc31)-c1csc(n1)C[C@H](NC(=O)[C@H](C(C)C)N(C)C(=O)N1CCCC13COC3)C(=O)N1CCC[C@H](N1)C(=O)OCC(C)(C)C2 [Compound A528]
25 | < 5 µM | CCn1c(-c2cccnc2[C@H](C)OC)c2c3cc(ccc31)-c1csc(n1)C[C@H](NC(=O)[C@H](C(C)C)N(C)C(=O)N1CC3(CC(N(C)CCOC)C3)C1)C(=O)N1CCC[C@H](N1)C(=O)OCC(C)(C)C2 [Compound A532]
26 | < 5 µM | CCn1c(-c2cccnc2[C@H](C)OC)c2c3cc(ccc31)-c1csc(n1)C[C@H](NC(=O)[C@H](C(C)C)N(C)C(=O)N1CC([C@H](C)NC)C1)C(=O)N1CCC[C@H](N1)C(=O)OCC(C)(C)C2 [Compound A535]
27 | < 5 µM | CCn1c(-c2cccnc2[C@H](C)OC)c2c3cc(ccc31)-c1cc(O)cc(c1)C[C@H](NC(=O)[C@H](C(C)C)N(C)C(=O)[C@@H]1OCC[C@@H]1c1cccnc1)C(=O)N1CCC[C@H](N1)C(=O)OCC(C)(C)C2 [Compound A546]
28 | < 5 µM | CCn1c(-c2cc(N3CCN(C)CC3)cnc2[C@H](C)OC)c2c3cc(ccc31)-c1csc(n1)C[C@H](NC(=O)[C@H](C(C)C)N(C)C(=O)N1CCOCC1)C(=O)N1CCC[C@H](N1)C(=O)OCC(C)(C)C2 [Compound A555]
29 | < 5 µM | CCn1c(-c2cccnc2[C@H](C)OC)c2c3cc(ccc31)-c1csc(n1)C[C@H](NC(=O)[C@H](C(C)C)N(C)C(=O)N1CCC3(CCN(C)CC3)C1)C(=O)N1CCC[C@H](N1)C(=O)OCC(C)(C)C2 [Compound A565]
30 | < 5 µM | CCn1c(-c2cccnc2[C@H](C)OC)c2c3cc(ccc31)-c1csc(n1)C[C@H](NC(=O)[C@H](C(C)C)N(C)C(=O)N1C[C@H](N)[C@@H](F)C1)C(=O)N1CCC[C@H](N1)C(=O)OCC(C)(C)C2 [Compound A567]
31 | < 5 µM | CCn1c(-c2cccnc2[C@H](C)OC)c2c3cc(ccc31)-c1csc(n1)C[C@H](NC(=O)[C@H](C(C)C)N(C)C(=O)N1CCOC[C@@H]1CN(C)C)C(=O)N1CCC[C@H](N1)C(=O)OCC(C)(C)C2 [Compound A572]
32 | < 5 µM | CCn1c(-c2cccnc2[C@H](C)OC)c2c3cc(ccc31)-c1csc(n1)C[C@H](NC(=O)[C@H](C(C)C)N(C)C(=O)N1CCC[C@H](CN(C)C)C1)C(=O)N1CCC[C@H](N1)C(=O)OCC(C)(C)C2 [Compound A573]
